Test results reported in patent publication US20260226073A1 (AURIGENE ONCOLOGY LIMITED, priority 2023, published 2026).

biological target: T1, human recombinant CBL-b (human Biotin CBL-b recombinant protein a.a. 39-426) (Homo sapiens, UniProt Q13191); test: Biochemical assay for CBL-b inhibition (ligand displacement TR-FRET); assay type: binding; conditions: 50 nM CBL-b, 0.3 μM Bodipy FL-Probe, read-out: IC50 (CBL-b inhibition, group)
T1 construct: human Biotin CBL-b recombinant protein a.a; 39-426; Biotin (biotinylated); made in house
T1 sequence (Q13191 39-426): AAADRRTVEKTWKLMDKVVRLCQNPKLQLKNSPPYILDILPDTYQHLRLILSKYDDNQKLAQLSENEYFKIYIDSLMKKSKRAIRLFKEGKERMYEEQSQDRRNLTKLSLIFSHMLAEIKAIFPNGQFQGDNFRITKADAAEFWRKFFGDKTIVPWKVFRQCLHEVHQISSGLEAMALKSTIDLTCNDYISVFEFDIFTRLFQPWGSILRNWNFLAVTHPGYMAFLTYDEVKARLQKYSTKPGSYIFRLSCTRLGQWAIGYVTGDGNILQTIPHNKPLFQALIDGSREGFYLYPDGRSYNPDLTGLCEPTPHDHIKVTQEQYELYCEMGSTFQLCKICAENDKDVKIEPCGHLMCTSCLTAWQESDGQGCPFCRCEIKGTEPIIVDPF
Protocol: The inhibitory activity of the test compounds was assessed by Ligand displacement TR-FRET assay. The human recombinant CBL-b (human Biotin CBL-b recombinant protein a.a. 39-426; synthesised in-house) was diluted in enzyme assay buffer (20 mM HEPES, 150 mM NaCl, 0.01% Triton X, 0.01% BSA, 0.5 mM TCEP) in a 10 μl volume and plated in 384-well plates (Cat #781075, Greiner) to a final concentration of 50 nM. The enzyme/compound mixture was incubated at RT for 60 min. The Bodipy FL-Probe described in WO 2020/210508 (synthesized in-house) diluted in enzyme assay buffer was added to the plate and incubated for 60 min RT, the final probe concentration was 0.3 μM. After 60 min incubation, 10 μl of detection mix (Terbium Streptavidin, (Cat #PV3576, Invitrogen) diluted in 1× Lance buffer) was added and incubated for 60 min at room temperature. Time-resolved fluorescence (excitation, 320 nm; emission donor, 615 nm; emission acceptor, 665 nm) was monitored by using 2030 multilabel reader Victor5 (PerkinElmer). The IC50 (concentration for half maximal inhibition) and % maximum inhibition of the compounds were estimated by fitting the dose response data to a sigmoidal curve fitting equation using Graph pad Prism software V. 8.

IC50, 80 to 300 nM:
C[C@H]1CCCN(Cc2cc(Cl)nc(N3Cc4ccc([C@@H](Cc5nncn5C)C(F)(F)F)cc4C3=O)c2)C1 (single isomer, unassigned) [Compound 180]
C[C@@H](NCc1cscn1)c1cc(Cl)nc(N2Cc3ccc(C4(Cc5nncn5C)COC4)cc3C2=O)c1 (single isomer, unassigned) [Compound 217]
C[C@@H](NC[C@H]1CCCO1)c1cc(Cl)nc(N2Cc3ccc(C4(Cc5nncn5C)COC4)cc3C2=O)c1 (single isomer, unassigned) [Compound 220]
C[C@H](NCc1ccccn1)c1cc(Cl)nc(N2Cc3ccc(C4(Cc5nncn5C)COC4)cc3C2=O)c1 (single isomer, unassigned) [Compound 242]
Cn1cnnc1C[C@]1(c2ccc3c(c2)C(=O)N(c2cc(CNCC4CCC4)cc(Cl)n2)C3)C[C@@H](C#N)C1 (single isomer, unassigned) [Compound 245]
CN1CCN(Cc2cc(N3Cc4ccc(C5(Cc6nncn6C)COC5)cc4C3=O)nc(C(F)(F)F)c2)CC1=O [Compound 63, 2-(4-((4-Methyl-3-oxopiperazin-1-yl)methyl)-6-(trifluoromethyl)pyridin-2-yl)-6-(3-((4-methyl-4H-1,2,4-triazol-3-yl)methyl)oxetan-3-yl)isoindolin-1-one]

IC50, < 80 nM:
CC1CCC(C)N(Cc2cc(N3Cc4ccc(C5(Cc6nncn6C)COC5)cc4C3=O)nc(C(F)(F)F)c2)C1 (single isomer, unassigned) [Compound 141]
Cn1cnnc1CC1(c2ccc3c(c2)C(=O)N(c2cc(CNC4CCCC4O)cc(Cl)n2)C3)COC1 (single isomer, unassigned) [Compound 209, 2-(6-Chloro-4-(((2-hydroxycyclopentyl)amino)methyl)pyridin-2-yl)-6-(3-((4-methyl-4H-1,2,4-triazol-3-yl)methyl)oxetan-3-yl)isoindolin-1-one]

IC50, 300 to 5000 nM:
CC1CCC(C)N(Cc2cc(N3Cc4ccc(C5(Cc6nncn6C)COC5)cc4C3=O)nc(C(F)(F)F)c2)C1 (single isomer, unassigned) [Compound 139]
CC1CCC(C)N(Cc2cc(N3Cc4ccc(C5(Cc6nncn6C)COC5)cc4C3=O)nc(C(F)(F)F)c2)C1 (single isomer, unassigned) [Compound 140]
CC1CCC(C)N(Cc2cc(N3Cc4ccc(C5(Cc6nncn6C)COC5)cc4C3=O)nc(C(F)(F)F)c2)C1 (single isomer, unassigned) [Compound 142]
C[C@@H](NCc1ccccn1)c1cc(Cl)nc(N2Cc3ccc(C4(Cc5nncn5C)COC4)cc3C2=O)c1 (single isomer, unassigned) [Compound 241]
C[C@H]1CCCN(Cc2cc(N3CCCC3)cc(N3Cc4ccc(C5(Cc6nncn6C)COC5)cc4C3=O)c2)C1 [Compound 21, (S)-6-(3-((4-Methyl-4H-1,2,4-triazol-3-yl)methyl)oxetan-3-yl)-2-(3-((3-methyl-piperidin-1-yl)methyl)-5-(pyrrolidin-1-yl)phenyl)isoindolin-1-one]
Cc1cc(CNCC(F)(F)F)cc(N2Cc3ccc(C4(Cc5nncn5C)COC4)cc3C2=O)c1 [Compound 22, 6-(3-((4-Methyl-4H-1,2,4-triazol-3-yl)methyl)oxetan-3-yl)-2-(3-methyl-5-(((2,2,2-trifluoroethyl)amino)methyl)phenyl)isoindolin-1-one]
Cn1cnnc1CC1(c2ccc3c(c2)C(=O)N(c2cc(CN4CCC5(CCCO5)CC4)cc(C(F)(F)F)n2)C3)COC1 [Compound 32, 2-(4-((1-Oxa-8-azaspiro[4.5]decan-8-yl)methyl)-6-(trifluoromethyl)pyridin-2-yl)-6-(3-((4-methyl-4H-1,2,4-triazol-3-yl)methyl)oxetan-3-yl)isoindolin-1-one]
Cn1cnnc1CC1(c2ccc3c(c2)C(=O)N(c2cc(C(=O)N4CC[C@H](O)C4)cc(C(F)(F)F)n2)C3)COC1 [Compound 36, (S)-2-(4-(3-Hydroxypyrrolidine-1-carbonyl)-6-(trifluoromethyl)pyridin-2-yl)-6-(3-((4-methyl-4H-1,2,4-triazol-3-yl)methyl)oxetan-3-yl)isoindolin-1-one]
Cn1cnnc1CC1(c2ccc3c(c2)C(=O)N(c2cc(CN4CCC(C(F)(F)F)CC4)cc(C(F)(F)F)n2)C3)COC1 [Compound 38, 6-(3-((4-Methyl-4H-1,2,4-triazol-3-yl)methyl)oxetan-3-yl)-2-(6-(trifluoro-methyl)-4-((4-(trifluoromethyl)piperidin-1-yl)methyl)pyridin-2-yl)isoindolin-1-one]
Cn1cnnc1CC1(c2ccc3c(c2)C(=O)N(c2cc(CN4CCC(O)CC4)cc(C(F)(F)F)n2)C3)COC1 [Compound 43, 2-(4-((4-Hydroxypiperidin-1-yl)methyl)-6-(trifluoromethyl)pyridin-2-yl)-6-(3-((4-methyl-4H-1,2,4-triazol-3-yl)methyl)oxetan-3-yl)isoindolin-1-one]
Cn1cnnc1CC1(c2ccc3c(c2)C(=O)N(c2cc(CN4CCC5(CCCO5)C4)cc(C(F)(F)F)n2)C3)COC1 (centres unmarked) [Compound 50, 2-(4-((1-Oxa-7-azaspiro[4.4]nonan-7-yl)methyl)-6-(trifluoromethyl)pyridin-2-yl)-6-(3-((4-methyl-4H-1,2,4-triazol-3-yl)methyl)oxetan-3-yl)isoindolin-1-one]
Cc1nccn1Cc1cc(N2Cc3ccc(C4(Cc5nncn5C)COC4)cc3C2=O)nc(C(F)(F)F)c1 [Compound 54, 2-(4-((2-Methyl-1H-imidazol-1-yl)methyl)-6-(trifluoromethyl)pyridin-2-yl)-6-(3-((4-methyl-4H-1,2,4-triazol-3-yl)methyl)oxetan-3-yl)isoindolin-1-one]
Cn1cnnc1CC1(c2ccc3c(c2)C(=O)N(c2cc(CN4CC5(COC5)C4)cc(C(F)(F)F)n2)C3)COC1 [Compound 55, 2-(4-((2-Oxa-6-azaspiro[3.3]heptan-6-yl)methyl)-6-(trifluoromethyl)pyridin-2-yl)-6-(3-((4-methyl-4H-1,2,4-triazol-3-yl)methyl)oxetan-3-yl)isoindolin-1-one]
Cc1cncn1Cc1cc(N2Cc3ccc(C4(Cc5nncn5C)COC4)cc3C2=O)nc(C(F)(F)F)c1 [Compound 69, 2-(4-((5-Methyl-1H-imidazol-1-yl)methyl)-6-(trifluoromethyl)pyridin-2-yl)-6-(3-((4-methyl-4H-1,2,4-triazol-3-yl)methyl)oxetan-3-yl)isoindolin-1-one]
Cc1cn(Cc2cc(N3Cc4ccc(C5(Cc6nncn6C)COC5)cc4C3=O)nc(C(F)(F)F)c2)cn1 [Compound 70, 2-(4-((4-Methyl-1H-imidazol-1-yl)methyl)-6-(trifluoromethyl)pyridin-2-yl)-6-(3-((4-methyl-4H-1,2,4-triazol-3-yl)methyl)oxetan-3-yl)isoindolin-1-one]
C[C@@H]1CN(Cc2cc(N3Cc4ccc(C5(Cc6nncn6C)COC5)cc4C3=O)nc(C(F)(F)F)c2)C[C@H](C)O1 [Compound 72, 2-(4-(((2R,6S)-2,6-Dimethylmorpholino)methyl)-6-(trifluoromethyl)pyridin-2-yl)-6-(3-((4-methyl-4H-1,2,4-triazol-3-yl)methyl)oxetan-3-yl)isoindolin-1-one]
CCNCCc1cc(N2Cc3ccc(C4(Cc5nncn5C)COC4)cc3C2=O)cc(C(F)(F)F)c1 [Compound 75, 2-(3-(2-(Ethylamino)ethyl)-5-(trifluoromethyl)phenyl)-6-(3-((4-methyl-4H-1,2,4-triazol-3-yl)methyl)oxetan-3-yl)isoindolin-1-one]
Cc1cc(N2Cc3ccc(C4(Cc5nncn5C)COC4)cc3C2=O)cc2c1cnn2CCN(C)C [Compound 76, 2-(1-(2-(Dimethylamino)ethyl)-4-methyl-1H-indazol-6-yl)-6-(3-((4-methyl-4H-1,2,4-triazol-3-yl)methyl)oxetan-3-yl)isoindolin-1-one]
CCN1CCc2c(cc(N3Cc4ccc(C5(Cc6nncn6C)COC5)cc4C3=O)cc2C(F)(F)F)C1 [Compound 77, 2-(2-Ethyl-5-(trifluoromethyl)-1,2,3,4-tetrahydroisoquinolin-7-yl)-6-(3-((4-methyl-4H-1,2,4-triazol-3-yl)methyl)oxetan-3-yl)isoindolin-1-one]
CCN(CC)Cc1cc(Cl)nc(N2Cc3ccc(C4(Cc5nncn5C)COC4)cc3C2=O)c1 [Compound 79, 2-(6-Chloro-4-((diethylamino)methyl)pyridin-2-yl)-6-(3-((4-methyl-4H-1,2,4-triazol-3-yl)methyl)oxetan-3-yl)isoindolin-1-one]
CN1CC2CC1CN2Cc1cc(N2Cc3ccc(C4(Cc5nncn5C)COC4)cc3C2=O)nc(C(F)(F)F)c1 (centres unmarked) [Compound 81, 2-(4-((5-Methyl-2,5-diazabicyclo[2.2.1]heptan-2-yl)methyl)-6-(trifluoromethyl)-pyridin-2-yl)-6-(3-((4-methyl-4H-1,2,4-triazol-3-yl)methyl)oxetan-3-yl)isoindolin-1-one]
